The results in this text go back to patent publication US10401793B2, “Digital holographic method of measuring cellular activity and measuring apparatus with improved stability” (PURDUE RESEARCH FOUNDATION, priority 2010, dated 2019).

“Also recorded” adds a separate entry of the source. Read-outs that look alike come from different tables or passages of the source.

What all share (assay type): cell-based
Assay [1] has as its system Rat osteogenic sarcoma tumor spheroids. In words: Speckle fluctuation spectroscopy: differential spectrograms (normalized spectral difference) of living tumor spheroids by coherence-gated digital holography. The source says: The set-up includes several mirrors M; a neutral density filter ND, two polarizing beam splitters PBS, a beam splitter BS, three lenses L1-L3, a half-wave plate λ/2, a quarter-wave plate λ/4, a Fourier plane FP, and a sample or target T. A mode-locked Ti:sapphire laser (100 fs pulse duration, 100 MHz repetition rate) was used with a center wavelength of 840 nm and a bandwidth of 17 nm. The lenses L1 and L2 expanded a reference beam, and the lens L3 performed the Fourier transform of the object beam. The CCD camera was placed at the Fourier plane of the object, where the object beam interfered with the zero-path-matched reference beam that passed through the computer-controlled delay line. The typical object intensity for living tissue at the object plane was 5 mW/mm^2, and an 8-bit CCD camera with one mega-pixel resolution was used with an exposure time of 10 msec. Digital holograms were reconstructed by Fast Fourier transform (FFT).
Rat osteogenic sarcoma tumor spheroids were used as the target tissue samples. Multicellular tumor spheroids have approximately spherical geometry that facilitates comparison of structure to function. As tumor spheroids are cultured in a rotating bioreactor, they undergo cell apoptosis or necrosis in their center and so consist of an inner necrotic core surrounded by an outer proliferating shell with a 100 to 200 μm thickness. A typical pseudo B-scan image is shown in FIG. 20, which is produced from 3D holographic images of an 800-μm-diameter rat tumor spheroid.
To capture dynamic speckle, 200 successive digital holograms were acquired at a fixed depth shown as a dashed line in FIG. 20. The time interval between holograms was selected to be 0.1 second. Examples of dynamic speckle are shown in FIG. 21A for a healthy rat tumor spheroid with a 600 μm diameter. […] The horizontal axis is the spatial axis and time is vertical. […] A “healthy” tumor is one that has been removed from the bioreactor and maintained in growth medium at room temperature for no more than 24 hours.
For tissue responding to stimuli, such as temperature and osmolarity changes or response to drugs, the key property of the spectral power density is its relative change in response to the stimulus. The normalized spectral difference for a time series is given by
[formula] where S0 (ω,t 0) is the starting spectral power density at the beginning time t0 of the experiment, and S(ω, t) is the time development of the spectral power density. The normalized power spectrum as a function of frequency of a 450-μm-diameter tumor responding to a dose of 1 μg/ml of nocodazole, an anti-tubulin cytoskeletal drug, is shown in FIG. 21C at selected times after the application of the drug. The associated normalized differential relative spectral change is shown in FIG. 21D as a function of time for the selected frequencies.
The tissue response contained in D(ω, t) can be represented as a spectrogram, showing the relative change in the spectrum as a function of time. These spectrograms track the changes of the intra-cellular motion in living tumors responding to temperature changes, osmolarity changes, and to nocodazole. The spectral difference in response to changes in temperature is shown in FIG. 22A as the temperature increased from 24° C. to 37° C. and then decreased to 24° C. The lower frequencies show weak suppression with increasing temperature, while the upper frequencies show significant enhancement at the highest temperature.
The drug-response spectrograms are defined by the differential relative spectral density as D(ω, t)=[S(ω, t)−S(ω, t0)]/S (ω, t0) where the spectrum at time t is related to and normalized by the spectrum at time to before the application of the perturbation or dose. The normalization is essential, because the spectral power density has general 1/f behavior, and the high frequency amplitudes are much smaller than the low frequency amplitudes. […]

A further assay relates to tumor spheroids. Put plainly: Motility contrast imaging (motility metric, dynamic speckle) of tumor spheroids. The conditions noted are these: for dose-response plotted as a reaction velocity (suppression of cellular motion): FIG. 13D, comparison of Nocodazole, Colchicine, Taxol. As for the experimental part: To create tumor spheroids for our studies, two different cell lines were used: rat osteogenic sarcoma UMR-106 cells, and human liver carcinoma Hep G2 cells. These were cultured in a rotating bioreactor (Synthecon, Houston, Tex.) where they were maintained in suspension. The spheroids may be grown up to a mm in diameter. An advantage to using this continuous culture model is that fresh spheroids of varying size are easily prepared on a daily basis.
Motility contrast imaging relies on dynamic light scattering combined with coherence gating. […] The data are the reconstructed pixel intensities plotted on a dB reflectance scale. The tumor in FIG. 9A was “healthy” while the tumor in FIG. 9B had been crosslinked with glutaraldehyde. […] The vertical axis is frame number at a rate of one frame per second.
Among the several possible ways to define a motility metric, one particularly robust approach simply calculates the coefficient of variance (known as the CV or as the normalized standard deviation) of a pixel value (after background subtraction) as a property related to the cellular and subcellular motion. The motility metric for individual pixels is plotted in FIG. 11 at nine selected depths inside a healthy tumor. The depths starting in the upper-left are 60 μm, 120 μm, 180 μm, 260 μm, 330 μm, 390 μm, 460 μm, 530 μm and 600 μm, respectively. The first frame is near the top of the tumor, while the central frame is near the center plane of the tumor. In the central plane there is a strong contrast between the healthy shell and necrotic core. […] These images correlate with the known structure of the tumor spheroids with a healthy outer shell and a necrotic core. In these images, the internal motions of the cells themselves have provided the imaging contrast agent. This is a truly endogenous functional imaging approach (i.e. without additional labeling or contrast agents).
Armed with the motility metric and the maps of cellular motion, it is possible to image the effects of anti-mitotic drugs (AMD) on the motility images. A time series at a fixed depth is shown in FIG. 12 for Nocodazole, which is an antimitotic drug (AMD) that inhibits the polymerization of tubulin into microtubules. The first frame is the initial state of the tumor. […] Nocodazole inhibits the polymerization of the microtubules, while treadmilling dissolves the microtubules from the other end, resulting in a significant reduction in the microtubule density within the cells. Without the microtubule cytoskeleton, organelle transport is suppressed, which is captured by the dynamic light scattering.

Assay [2] deals with tumor spheroid (healthy shell and necrotic core). Put plainly: Heterodyne autocorrelation function of depth-gated speckle (correlation time, NSD) of a tumor spheroid. The conditions noted are these: 10 minutes after 10 μg/ml cytochalasin D. An excerpt:
In living tissue, the speckle is dynamic, caused by motion of cellular membranes and by intracellular organelles, coupled with the optical channel cross-talk caused by multiple scattering. […] We previously studied the effects of anti-mitotic drugs on tumor spheroids using optical coherence imaging, and defined motility metrics from the autocorrelation functions of the depth-gated pixel fluctuations. The resulting motility contrast imaging (MCI) is fully endogenous, responding to the dynamic functions of cellular processes. The autocorrelation function is a first-order heterodyne function because the holography uses a reference wave (the coherence gate) that captures the real and imaginary part of the fluctuating field as the coherence-gated pixel number Id^(1) (t) to yield the autocorrelation function A^(1)(τ)= ? id^(1)(0)id^(1)(τ) ? ∝ILO^2+2ILORE {I^(1)(τ)} where τ is the time delay among an ensemble of images, and I^(1), (τ) is the heterodyne correlation function. Two motility metrics can be defined from the heterodyne correlation function. They are the decay time, and the normalized standard deviation, given by
An ensemble consists of 40 images taken with a frame rate of 1 per second. […] […].

On to `COc1cc2c(c(OC)c1OC)-c1ccc(OC)c(=O)cc1[C@@H](NC(C)=O)CC2` [Colchicine], for which, in assay [1], the “high-frequency organelle activity, core-shell comparison” value (“high-frequency organelle activity” for short) is “appears only in the healthy shell and not in the core”; the spectrogram fingerprint result is recorded as “significant enhancement of lower frequencies”.
As to `COC(=O)Nc1nc2ccc(C(=O)c3cccs3)cc2[nH]1` [Nocodazole], the “motility (activity) of the outer shell, motility maps” value with tumor spheroids (2 μg/ml Nocodazole, 3 minutes after application, fixed depth) was “increased its activity by a small amount”. In addition, the “motility (motion) of the outer shell, motility maps” value in the assay with tumor spheroids (2 μg/ml Nocodazole, 21 minutes) is given as “partially suppressed”; in the assay on tumor spheroids (2 μg/ml Nocodazole, 50 minutes), “further suppressed”; in the assay on tumor spheroids (2 μg/ml Nocodazole, 79 minutes), “further suppressed”. In the assay on tumor spheroids (2 μg/ml Nocodazole, 119 minutes after application), the “motility in the outer shell, motility maps” value was “significantly reduced”. For the same compound, in the assay on tumor spheroids, the “dose-response plotted as a reaction velocity (suppression of cellular motion)” value was “strongest suppression of cellular motion at the lowest effective concentrations”. The “normalized spectral difference, middle frequency range between 0.02 Hz to 1 Hz” value in assay [1] (1 μg/ml nocodazole) is on record as “very strong suppression in motion”. For the same compound, in assay [1] (1 μg/ml nocodazole), the “normalized spectral difference, ultra-low frequency below 0.01 Hz” value is “enhancement”. In assay [1] (1 μg/ml nocodazole, 450-μm-diameter tumor, proliferating shell), the “normalized differential relative spectral change as a function of time at selected frequencies” value is given as “higher frequencies change relatively less than the lower frequencies”. In addition, the spectrogram fingerprint result in assay [1] (dose of 1 μg/ml, FIG. 34A-34D) is on record as “significant enhancement of lower frequencies”.
As for `CC(=O)O[C@H]1C(=O)[C@@]2(C)[C@H]([C@H](OC(=O)c3ccccc3)[C@]3(O)C[C@H](OC(=O)[C@H](O)[C@@H](NC(=O)c4ccccc4)c4ccccc4)C(C)=C1C3(C)C)[C@]1(OC(C)=O)CO[C@@H]1C[C@@H]2O` [Taxol, Paclitaxel], in the assay on tumor spheroids (FIG. 13A-13C), the “suppression of the motility, time evolution under different doses” value is given as “significantly smaller suppression of the motility”. In the assay on tumor spheroids, the “dose-response plotted as a reaction velocity (suppression of cellular motion)” value is reported as “weakest effect”. Besides, the spectrogram fingerprint entry in assay [1] (dose of 1 μg/ml, FIG. 34A-34D) is recorded as “only a weak change”. For the same compound, the “high-frequency organelle activity” value in assay [1] (shell versus core spectrograms) was “appears only in the healthy shell and not in the core”.
In the case of `C=C1[C@@H](C)[C@H]2[C@H](Cc3ccccc3)NC(=O)[C@]23[C@H](OC(C)=O)/C=C/[C@@](C)(O)C(=O)[C@@H](C)C/C=C/[C@H]3[C@@H]1O` [cytochalasin D], in assay [2], the “brightness change of the healthy shell” value is recorded as 6% and the “brightness change of the necrotic core” value is given as “becomes dimmer”. The “correlation time, healthy shell” value in assay [2] (before dose 4.6 sec) was found to be 7.2 s. The “relative power spectral density, middle-frequency fluctuations, shell” value in assay [1] (50 μg/ml cytochalasin D at room temperature, 10 μg/ml at physiological temperature) is “enhanced”. Moreover, the spectrogram fingerprint entry in assay [1] (dose of 1 μg/ml, FIG. 34A-34D) is reported as “enhancement of the mid-frequencies for about 2 hours after application of the drug, followed by a shift of the spectral weight to lower frequencies”. Further, in assay [1] (shell versus core spectrograms), the “high-frequency organelle activity” value was “appears only in the healthy shell and not in the core; also recorded: appears strongly only in the shell and not in the core”.
On to `O=CCCCC=O` [glutaraldehyde], for which, in the assay on tumor spheroids (tumor crosslinked with glutaraldehyde, depth about 300 microns, one frame per second), the “dynamic speckle at fixed depth” value is recorded as “static speckle”.
As for `O=C(O)CI` [iodoacetate], in assay [1], the “oscillations in the spectrogram, shell and core” value is recorded as “induces oscillations in the mid-to-low frequency range”; the “spectrogram of the shell, high frequencies associated with organelle transport” value is recorded as “strong increase”.
